test system: corn leaf; assay: Dark induced senescence of corn leaf (leaf discs); assay type: cell-based, Corn (variety Multitop); details: 23° C., 8 days, 0.5% DMSO, image analysis, lower value = higher senescence induction potency
Protocol: It is known that strigolactones regulate (accelerate) leaf senescence, potentially through D14 receptor signaling. Compounds of the present invention (I) were compared to structurally-related compounds (Z) in a corn leaf dark induced senescence assay. Corn plants of variety Multitop were grown in a greenhouse with relative 75% humidity and at 23-25° C. for 6 weeks. 1.4 cm diameter leaf discs were placed into 24-well plates containing a test compounds in a concentration gradient (100 μM-0.0001 μM) at a final concentration of 0.5% DMSO. Each concentration was tested in 12 replicates. Plates were sealed with seal foil. The foil was pierced to provide gas exchange in each well. The plates were placed into the completely dark climatic chamber. Plates were incubated in the chamber with 75% humidity and at 23° C. for 8 days. On days 0, 5, 6, 7 and 8 photographs were taken of each plate, and image analysis conducted with a macro developed using the ImageJ software. The image analysis was used to determine the concentration at which 50% senescence was achieved (IC50), see Table 7. The lower the value, the higher senescence induction potency.

In the case of `CC1=C(C)C(O/C=C2/C(=O)N(c3nccs3)C3c4ccccc4CC23)OC1=O` (stereo not shown) [Compound Z2-Me, reference compound], the “IC50 (concentration at which 50% senescence was achieved)” value is reported as “inactive”.
`CC1=CC(O/C=C2/C(=O)N(c3nccs3)C3c4ccccc4CC23)OC1=O` (stereo not shown) [Compound Z2, reference compound] was tested, and the “IC50 (concentration at which 50% senescence was achieved)” value was “inactive”.

same assay, conditions: Zea mays, foliar, 192 h, 23° C., 8 days, 0.5% DMSO, image analysis, lower value = higher senescence induction potency, read-out: IC50 (concentration at which 50% senescence was achieved)

First: CC(=O)N1C(=O)/C(=C/OC2C=C(C)C(=O)O2)C2Cc3ccccc3C21 (stereo not shown) [Compound Z1, reference compound]
Second: CC(=O)N1C(=O)/C(=C/OC2C=C(C)C(=O)O2)C2c3ccccc3CC21 (stereo not shown) [Compound I-1, (1E)-3-acetyl-1-[(4-methyl-5-oxo-2H-furan-2-yl)oxymethylene]-4,8b-dihydro-3aH-indeno[2,1-b]pyrrol-2-one]
The IC50 of the first is 1.7-fold higher: 110 nM for the first, 64 nM for the second. The second is the more potent here.

Compared with `CC1=CC(O/C=C2/C(=O)N(CC#N)C3c4ccccc4CC23)OC1=O` (stereo not shown) [Compound Z4-E, reference compound], `CC1=CC(O/C=C2/C(=O)N(CC#N)C3Cc4ccccc4C23)OC1=O` (stereo not shown) [Compound I-12-E, 2-[(1E)-1-[(4-methyl-5-oxo-2H-furan-2-yl)oxymethylene]-2-oxo-4,8b-dihydro-3aH-indeno[2,1-b]pyrrol-3-yl]acetonitrile] is 2.4-fold lower in IC50: 3710 nM for the first, 1550 nM for the second.

Compared with `CC1=CC(O/C=C2/C(=O)N(c3nccs3)C3Cc4ccccc4C23)OC1=O` (stereo not shown) [Compound I-9, (1E)-1-[(4-methyl-5-oxo-2H-furan-2-yl)oxymethylene]-3-thiazol-2-yl-4,8b-dihydro-3aH-indeno[2,1-b]pyrrol-2-one], `CC1=C(C)C(O/C=C2/C(=O)N(c3nccs3)C3Cc4ccccc4C23)OC1=O` (stereo not shown) [Compound I-13, (1E)-1-[(3,4-dimethyl-5-oxo-2H-furan-2-yl)oxymethylene]-3-thiazol-2-yl-4,8b-dihydro-3aH-indeno[2,1-b]pyrrol-2-one] is 11-fold lower in IC50: 126 nM for the first, 11.1 nM for the second.

First: CC1=CC(O/C=C2/C(=O)N(c3ccccc3)C3c4ccccc4CC23)OC1=O (stereo not shown) [Compound Z3, reference compound]
Second: CC1=CC(O/C=C2/C(=O)N(c3ccccc3)C3Cc4ccccc4C23)OC1=O (stereo not shown) [Compound I-10, (1E)-1-[(4-methyl-5-oxo-2H-furan-2-yl)oxymethylene]-3-phenyl-4,8b-dihydro-3aH-indeno[2,1-b]pyrrol-2-one]
The IC50 of the first is 23-fold higher: 2470 nM for the first, 107 nM for the second. The second is the more potent here.

`CC(=O)N1C(=O)/C(=C/OC2OC(=O)C(C)=C2C)C2c3ccccc3CC21` (stereo not shown) [Compound I-5, (1E)-3-acetyl-1-[(3,4-dimethyl-5-oxo-2H-furan-2-yl)oxymethylene]-4,8b-dihydro-3aH-indeno[2,1-b]pyrrol-2-one] and `CC(=O)N1C(=O)/C(=C/OC2OC(=O)C(C)=C2C)C2Cc3ccccc3C21` (stereo not shown) [Compound Z1-Me, reference compound] are within 1.5-fold of each other in IC50: 24 nM for the first, 30 nM for the second.

With `CC(=O)N1C(=O)/C(=C/OC2OC(=O)C(C)=C2C)C2c3ccccc3OC21` (stereo not shown) [Compound I-25] the IC50 was 990 nM.
